Test results as given in patent US10544143B2, “4-azaindole compounds” (BRISTOL-MYERS SQUIBB COMPANY, priority 2017, dated 2020).
Like-named read-outs stand apart in the source and are kept apart here.

Tests used:
human TLR8 = human TLR8 (Homo sapiens (Human), UniProt Q9NR97); assay: TLR8 inhibition reporter assay (HEK-Blue SEAP); conditions: read-out: TLR8 IC50;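 note: SEAP driven by IFN-β minimal promoter carrying NF-κB and AP-1 sites, compounds dosed 0.05 nM to 50 µM for 22 h, inhibition scaled between agonist-plus-DMSO and reference-inhibitor wells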
human TLR9 = human TLR9 (Homo sapiens (Human), UniProt Q9NR96); assay: TLR9 inhibition reporter assay (HEK-Blue SEAP); conditions: read-out: TLR9 IC50;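 note: SEAP driven by an IFN-β minimal promoter with NF-κB and AP-1 sites, read after 22 h, compounds dosed 0.05 nM–50 µM, inhibition scaled between agonist plus DMSO and reference-inhibitor wells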
human TLR7 = human TLR7 (Homo sapiens (Human), UniProt Q9NYK1); assay: TLR7 inhibition reporter assay (HEK-Blue SEAP); assay type: cell-based
[1] = HEK-Blue cells overexpressing human TLR8, R848 15.9 μM stimulation, SEAP reporter
[2] = HEK-Blue cells overexpressing human TLR9, ODN2006 5 nM stimulation, SEAP reporter
[3] = HEK-Blue cells overexpressing human TLR7, gardiquimod 7.5 μM stimulation, SEAP reporter
[4] = HEK-Blue human TLR8 cells, R848 15.9 μM
[5] = HEK-Blue human TLR9 cells, ODN2006 5 nM
[6] = HEK-Blue human TLR7 cells, gardiquimod 7.5 μM
[7] = HEK-Blue cells overexpressing human TLR8, SEAP reporter, R848 15.9 μM
[8] = HEK-Blue cells overexpressing human TLR9, SEAP reporter, ODN2006 5 nM
[9] = HEK-Blue cells overexpressing human TLR7, SEAP reporter, gardiquimod 7.5 μM

Sequence of human TLR8 (Q9NR97 27-1041): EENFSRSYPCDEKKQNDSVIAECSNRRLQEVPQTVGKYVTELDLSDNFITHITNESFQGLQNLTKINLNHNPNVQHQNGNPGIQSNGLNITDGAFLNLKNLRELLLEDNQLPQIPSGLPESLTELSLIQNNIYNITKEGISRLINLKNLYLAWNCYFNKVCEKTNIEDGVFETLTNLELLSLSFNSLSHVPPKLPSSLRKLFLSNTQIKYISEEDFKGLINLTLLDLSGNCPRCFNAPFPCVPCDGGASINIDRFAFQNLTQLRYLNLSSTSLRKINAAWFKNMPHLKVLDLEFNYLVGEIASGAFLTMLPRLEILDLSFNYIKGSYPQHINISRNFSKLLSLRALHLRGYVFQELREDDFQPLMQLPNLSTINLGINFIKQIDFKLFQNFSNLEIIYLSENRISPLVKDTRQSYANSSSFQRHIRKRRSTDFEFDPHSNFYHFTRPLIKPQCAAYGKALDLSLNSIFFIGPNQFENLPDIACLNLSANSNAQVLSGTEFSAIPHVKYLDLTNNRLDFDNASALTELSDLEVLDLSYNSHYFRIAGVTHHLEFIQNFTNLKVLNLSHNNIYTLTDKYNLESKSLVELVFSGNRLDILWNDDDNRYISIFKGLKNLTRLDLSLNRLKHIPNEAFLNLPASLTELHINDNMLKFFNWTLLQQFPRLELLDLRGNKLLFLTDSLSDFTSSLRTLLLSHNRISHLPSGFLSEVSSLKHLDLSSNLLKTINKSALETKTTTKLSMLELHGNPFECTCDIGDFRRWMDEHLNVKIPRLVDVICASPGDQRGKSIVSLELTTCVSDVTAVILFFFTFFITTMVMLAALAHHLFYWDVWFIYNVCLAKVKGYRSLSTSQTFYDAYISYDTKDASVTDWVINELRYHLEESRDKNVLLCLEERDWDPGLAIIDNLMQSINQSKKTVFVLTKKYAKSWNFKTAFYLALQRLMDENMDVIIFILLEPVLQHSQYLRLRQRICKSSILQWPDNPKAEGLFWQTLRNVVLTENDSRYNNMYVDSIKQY
Sequence of human TLR7 (Q9NYK1 27-1049): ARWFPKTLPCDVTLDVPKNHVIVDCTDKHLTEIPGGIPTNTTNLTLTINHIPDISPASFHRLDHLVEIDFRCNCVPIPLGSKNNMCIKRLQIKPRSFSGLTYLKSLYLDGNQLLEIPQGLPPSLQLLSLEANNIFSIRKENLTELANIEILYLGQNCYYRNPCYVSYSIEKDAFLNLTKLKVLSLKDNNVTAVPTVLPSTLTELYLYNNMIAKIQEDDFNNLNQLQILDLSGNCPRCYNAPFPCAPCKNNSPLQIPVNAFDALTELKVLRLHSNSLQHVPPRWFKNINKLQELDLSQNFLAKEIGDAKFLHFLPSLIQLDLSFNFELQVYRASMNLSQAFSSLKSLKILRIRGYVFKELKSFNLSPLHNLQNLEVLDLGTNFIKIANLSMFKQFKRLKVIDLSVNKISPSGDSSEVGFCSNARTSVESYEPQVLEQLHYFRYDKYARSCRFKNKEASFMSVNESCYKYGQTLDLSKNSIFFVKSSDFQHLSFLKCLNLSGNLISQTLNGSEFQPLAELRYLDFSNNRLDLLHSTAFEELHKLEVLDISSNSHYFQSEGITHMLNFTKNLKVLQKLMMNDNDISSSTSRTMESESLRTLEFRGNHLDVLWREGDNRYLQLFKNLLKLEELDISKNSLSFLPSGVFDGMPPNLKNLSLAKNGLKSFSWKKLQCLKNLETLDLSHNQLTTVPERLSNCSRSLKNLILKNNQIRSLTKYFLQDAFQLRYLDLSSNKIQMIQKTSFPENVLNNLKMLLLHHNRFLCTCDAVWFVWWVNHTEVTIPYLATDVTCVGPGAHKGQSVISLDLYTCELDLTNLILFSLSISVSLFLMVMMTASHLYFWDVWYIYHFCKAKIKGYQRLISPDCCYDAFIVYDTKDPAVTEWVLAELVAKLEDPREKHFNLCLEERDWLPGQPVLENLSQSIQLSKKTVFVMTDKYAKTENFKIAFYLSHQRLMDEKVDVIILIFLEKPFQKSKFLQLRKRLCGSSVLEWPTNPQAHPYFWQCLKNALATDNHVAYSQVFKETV
Sequence of human TLR9 (Q9NR96 26-1032): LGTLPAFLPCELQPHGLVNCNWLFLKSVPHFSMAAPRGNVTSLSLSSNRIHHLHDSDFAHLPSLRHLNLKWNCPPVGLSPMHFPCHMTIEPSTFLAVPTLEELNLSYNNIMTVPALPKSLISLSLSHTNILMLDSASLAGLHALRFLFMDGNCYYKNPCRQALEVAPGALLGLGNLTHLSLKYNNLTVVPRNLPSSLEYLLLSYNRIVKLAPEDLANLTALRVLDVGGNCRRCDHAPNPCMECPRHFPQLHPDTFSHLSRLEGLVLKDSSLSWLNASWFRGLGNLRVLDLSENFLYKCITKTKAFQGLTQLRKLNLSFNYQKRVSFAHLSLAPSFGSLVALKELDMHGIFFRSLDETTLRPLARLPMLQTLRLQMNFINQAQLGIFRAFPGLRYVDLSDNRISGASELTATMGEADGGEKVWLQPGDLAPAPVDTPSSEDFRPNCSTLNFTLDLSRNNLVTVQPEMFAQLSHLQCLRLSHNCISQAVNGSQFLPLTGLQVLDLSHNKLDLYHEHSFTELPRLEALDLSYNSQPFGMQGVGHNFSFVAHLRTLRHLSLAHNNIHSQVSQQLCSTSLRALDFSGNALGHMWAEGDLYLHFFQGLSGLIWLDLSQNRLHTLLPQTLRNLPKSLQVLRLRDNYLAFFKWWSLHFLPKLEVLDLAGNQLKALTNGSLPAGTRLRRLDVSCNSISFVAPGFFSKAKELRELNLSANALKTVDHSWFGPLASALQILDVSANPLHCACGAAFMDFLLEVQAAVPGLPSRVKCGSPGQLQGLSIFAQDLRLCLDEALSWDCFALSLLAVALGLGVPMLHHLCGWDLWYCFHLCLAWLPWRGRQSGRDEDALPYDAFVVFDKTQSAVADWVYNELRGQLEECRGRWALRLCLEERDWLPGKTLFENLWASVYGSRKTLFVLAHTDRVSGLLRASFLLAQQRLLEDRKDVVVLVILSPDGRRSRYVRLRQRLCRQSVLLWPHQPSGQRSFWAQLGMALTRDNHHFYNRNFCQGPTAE

Row | SMILES | IC50 (human TLR8; [1]) [nM] | IC50 (human TLR9; [2]) [nM] | IC50 (human TLR7; [3]) [nM] | IC50 (human TLR8; [7]) [nM] | IC50 (human TLR9; [8]) [nM] | IC50 (human TLR7; [9]) [nM] | further results
1 | COc1cc(-c2[nH]c3ccc(N4CCN(C(=O)CN(C)C)CC4)nc3c2C(C)C)cn2ncnc12 [Example 90] | 4.2 | 5000 | 0.57 | – | – | – | –
2 | COc1cc(-c2[nH]c3ccc(C4CCC(N5CC6(CCOC6)C5)CC4)nc3c2C(C)C)cn2ncnc12 (stereo not drawn) [Example 1069] | – | – | – | – | – | – | IC50 (human TLR8; [4]): 0.17 nM; IC50 (human TLR9; [5]): 735 nM; IC50 (human TLR7; [6]): 0.09 nM
3 | CCCN(CCC)C1CCC(Oc2ccc3[nH]c(-c4cc(OC)c5ncnn5c4)c(C(C)C)c3n2)CC1 (stereo not drawn) [Example 611, 4-((3-isopropyl-2-(8-methoxy-[1,2,4]triazolo[1,5-a]pyridin-6-yl)-1H-pyrrolo[3,2-b]pyridin-5-yl)oxy)-N,N-dipropylcyclohexan-1-amine] | – | – | – | 17 | 1930 | 8.4 | –
4 | CNC1CCC(c2ccc3[nH]c(-c4cn(C)c5ncncc45)c(C(C)C)c3n2)CC1 (stereo not drawn) [Example 301] | 42 | 4090 | 2 | – | – | – | –
5 | Cc1c(-c2[nH]c3ccc(N4CC5CCC(C4)N5)nc3c2C(C)C)cn2ncnc2c1C [Example 973] | – | – | – | – | – | – | IC50 (human TLR8; [4]): 1.7 nM; IC50 (human TLR9; [5]): 15800 nM; IC50 (human TLR7; [6]): 6.7 nM
6 | Cc1c(-c2[nH]c3ccc(C4CCC(NCC5CCCCS5(=O)=O)CC4)nc3c2C(C)C)cn2ncnc2c1C (stereo not drawn) [Example 471] | – | – | – | 3.2 | 4710 | 2.8 | –
7 | Cc1c(-c2[nH]c3ccc(C4CCC(N(CC#N)CC(=O)N(C)C)CC4)nc3c2C(C)C)cn2ncnc2c1C (stereo not drawn) [Example 459] | – | – | – | 4.3 | 2790 | 6.2 | –
8 | Cc1c(-c2[nH]c3ccc(N4CCN[C@H](CO)C4)nc3c2C(C)C)cn2ncnc2c1C [Example 987] | – | – | – | – | – | – | IC50 (human TLR8; [4]): 0.5 nM; IC50 (human TLR9; [5]): 11300 nM; IC50 (human TLR7; [6]): 2.9 nM
9 | Cc1c(-c2[nH]c3ccc(C4CCC(NCCS(N)(=O)=O)CC4)nc3c2C(C)C)cn2ncnc2c1C (stereo not drawn) [Example 447] | – | – | – | 2.3 | 1640 | 1.7 | –
10 | Cc1c(-c2[nH]c3ccc(C4CCC(N(C)CC(=O)N(C)C)CC4)nc3c2C(C)C)cn2ncnc2c1C (stereo not drawn) [Example 410] | – | – | – | 6.5 | 4920 | 5 | –
11 | Cc1c(-c2[nH]c3ccc(N4C[C@@H]5CC4CN5)nc3c2C(C)C)cn2ncnc2c1C [Example 984] | – | – | – | – | – | – | IC50 (human TLR8; [4]): 0.85 nM; IC50 (human TLR9; [5]): 3430 nM; IC50 (human TLR7; [6]): 1 nM
12 | COc1cc(-c2[nH]c3ccc(N4CCN(CCC(=O)N(C)C)CC4)nc3c2C(C)C)cn2ncnc12 [Example 136] | 0.79 | 8220 | 5.7 | – | – | – | –
13 | Cc1c(-c2[nH]c3ccc(N4C[C@H](C)N(CCCS(C)(=O)=O)C[C@H]4C)nc3c2C(C)C)cn2ncnc2c1C [Example 845] | – | – | – | – | – | – | IC50 (human TLR8; [4]): 14 nM; IC50 (human TLR9; [5]): 21300 nM; IC50 (human TLR7; [6]): 7.2 nM
14 | COc1cc(-c2[nH]c3ccc(OCC4CCN(C5CCOCC5)CC4)nc3c2C(C)C)cn2ncnc12 [Example 591, 6-(3-isopropyl-5-((1-(tetrahydro-2H-pyran-4-yl)piperidin-4-yl)methoxy)-1H-pyrrolo[3,2-b]pyridin-2-yl)-8-methoxy-[1,2,4]triazolo[1,5-a]pyridine] | – | – | – | 7.7 | 2850 | 4.8 | –
15 | COc1cc(-c2[nH]c3ccc(C4CC(N(C)C)C4)nc3c2C(C)C)cn2ncnc12 (stereo not drawn) [Example 639] | – | – | – | 1.9 | 1470 | 0.98 | –
16 | Cc1c(-c2[nH]c3ccc(N4C[C@H](C)N(C(=O)CN(C)C)C[C@H]4C)nc3c2C(C)C)cn2ncnc2c1C [Example 839] | – | – | – | – | – | – | IC50 (human TLR8; [4]): 3.2 nM; IC50 (human TLR9; [5]): 7870 nM; IC50 (human TLR7; [6]): 0.37 nM
17 | Cc1c(-c2[nH]c3ccc(N4C[C@H](C)NC[C@H]4C)nc3c2C(C)C)cn2ncnc2c1C [Example 990] | – | – | – | – | – | – | IC50 (human TLR8; [4]): 4 nM; IC50 (human TLR9; [5]): 6020 nM; IC50 (human TLR7; [6]): 0.8 nM
18 | COc1cc(-c2[nH]c3ccc(N4CCN(CC(=O)N(C)C)CC4)nc3c2C(C)C)cn2ncnc12 [Example 128] | 2.6 | 35400 | 5.4 | – | – | – | –

Row | SMILES | IC50 (human TLR8; [1]) [nM] | IC50 (human TLR9; [2]) [nM] | IC50 (human TLR7; [3]) [nM] | IC50 (human TLR8; [7]) [nM] | IC50 (human TLR9; [8]) [nM] | IC50 (human TLR7; [9]) [nM] | further results
19 | Cc1c(-c2[nH]c3ccc(N4C[C@H](C)N(C(=O)CN(CCO)C(C)(C)C)C[C@H]4C)nc3c2C(C)C)cn2ncnc2c1C [Example 954] | – | – | – | – | – | – | IC50 (human TLR8; [4]): 36 nM; IC50 (human TLR9; [5]): 20900 nM; IC50 (human TLR7; [6]): 1.9 nM
20 | COc1cc(-c2[nH]c3ccc(C4CCN(CC(=O)N(C)C)CC4)nc3c2C(C)C)cn2ncnc12 [Example 537] | – | – | – | 7.1 | 2850 | 2.1 | –
21 | CC(C)c1c(-c2cn(C)c3ncncc23)[nH]c2ccc(N3CCN(C4CCOCC4)CC3)nc12 [Example 127] | 0.48 | 5900 | 4.6 | – | – | – | –
22 | COc1cc(-c2[nH]c3cc(F)c(C4CCNCC4)nc3c2C(C)C)cn2ncnc12 [Example 524] | – | – | – | 6.7 | 407 | 0.88 | –
23 | COc1cc(-c2[nH]c3ccc(C4CCC(N(C)CCS(C)(=O)=O)CC4)nc3c2C(C)C)cn2ncnc12 (stereo not drawn) [Example 242] | 15 | 2410 | 1.5 | – | – | – | –
24 | CC(C)c1c(-c2cn(C)c3ncccc23)[nH]c2ccc(C3CCC(N(C)CC(=O)N(C)C)CC3)nc12 (stereo not drawn) [Example 201] | 6 | 570 | 1.5 | – | – | – | –
25 | COc1cc(-c2[nH]c3cc(C)c(C4CCN(CC(C)(C)O)CC4)nc3c2C(C)C)cn2ncnc12 [Example 587] | – | – | – | 27 | 1410 | 0.31 | –
26 | COc1cc(-c2[nH]c3cc(C)c(C4CCC(NC5COC5)CC4)nc3c2C(C)C)cn2ncnc12 (stereo not drawn) [Example 309] | 4.6 | 268 | 0.31 | – | – | – | –
27 | Cc1c(-c2[nH]c3ccc(N4CCN(C(=O)CN(C)C(C)C)CC4)nc3c2C(C)C)cn2ncnc2c1C [Example 872] | – | – | – | – | – | – | IC50 (human TLR8; [4]): 3.8 nM; IC50 (human TLR9; [5]): 9540 nM; IC50 (human TLR7; [6]): 0.97 nM
28 | Cc1c(-c2[nH]c3ccc(C4CCC(NCCC#N)CC4)nc3c2C(C)C)cn2ncnc2c1C (stereo not drawn) [Example 432] | – | – | – | 0.55 | 584 | 0.37 | –
29 | Cc1c(-c2[nH]c3ccc(N4C[C@@H](C)N(C(=O)CN(C(C)C)C(C)C)C[C@@H]4C)nc3c2C(C)C)cn2ncnc2c1C [Example 910] | – | – | – | – | – | – | IC50 (human TLR8; [4]): 0.86 nM; IC50 (human TLR9; [5]): 5400 nM; IC50 (human TLR7; [6]): 0.68 nM
30 | Cc1cnc(CNC2CCC(c3ccc4[nH]c(-c5cn6ncnc6c(C)c5C)c(C(C)C)c4n3)CC2)cn1 (stereo not drawn) [Example 357] | 4.4 | 1050 | 3.9 | – | – | – | –
31 | Cc1cc2[nH]c(-c3cc(C)c4ncnn4c3)c(C(C)C)c2nc1C1CCN(CC(=O)N(C)C)CC1 [Example 581] | – | – | – | 79 | 4920 | 0.3 | –
32 | CNC1CCC(c2ccc3[nH]c(-c4cn(C)c5nccnc45)c(C(C)C)c3n2)CC1 (stereo not drawn) [Example 297] | 15 | 885 | 8.4 | – | – | – | –
33 | COc1cc(-c2[nH]c3cc(C)c(C4CCC(N5CC6(COC6)C5)CC4)nc3c2C(C)C)cn2ncnc12 (stereo not drawn) [Example 319] | 4.1 | 1690 | 0.44 | – | – | – | –
34 | COc1cc(-c2[nH]c3ccc(N4CCN(CC(C)C)CC4)nc3c2C(C)C)cn2ncnc12 [Example 109] | 1.3 | 8010 | 3.6 | – | – | – | –
35 | CNC1CCC(c2ccc3[nH]c(-c4cn(CCS(C)(=O)=O)c5ncccc45)c(C(C)C)c3n2)CC1 (stereo not drawn) [Example 264] | 42 | 255 | 55 | – | – | – | –
36 | Cc1c(-c2[nH]c3ccc(N4CCC(N)CC4)nc3c2C(C)C)cn2ncnc2c1C [Example 50] | 0.39 | 2840 | 0.49 | – | – | – | –
